Structures are written as SMILES.

The nature of the data set: gradient 5% acetonitrile 3 min, to 50% in 2 min, to 85% in 15 min, held 3 min, 100 µL/min. The settings on record: column: Zorbax Extend-C18 2.1 x 50 mm; eluents: water / acetonitrile, 0.1% formic acid. In outline:
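Each retention time is based on an adduct peak selected computationally and verified by manual inspection. Measurements used HPLC–quadrupole time-of-flight mass spectrometry in positive and negative ionization mode on mixtures of ~100 pure standards. Chromatography ran on a Zorbax Extend-C18 column (2.1 × 50 mm, 1.8 μm) at 100 μL/min with water and acetonitrile, each containing 0.1% formic acid, and dead and dwell volumes of 40 μL and 900 μL.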
`CCCN(CC(=O)N(Cc1ccco1)CC1CCCO1)C(=O)c1ccc2c(c1)OCO2` (centres undefined) had an RP-LC retention time of 770 s.
The value for `CCN1CCN(c2cc(C(=O)O)c3cc(NS(=O)(=O)c4cc(C)ccc4C)ccc3n2)CC1` was 610 s; that for `Cc1ccc(C)c(NC(=O)C2CCCN2S(=O)(=O)c2ccc3c(c2)CCCC(=O)N3)c1` (centres undefined) was 810 s; that for `Cc1cc2nc(C(=O)N3CCN(c4ccccn4)CC3)c(=O)n(C)c2cc1C` was 597 s.
As for `Cn1cccc1C(=O)C(=O)Nc1ccc(C#N)cc1`, the figure is 872 s; as for `CCc1ccc(CNC(=O)C2CCN(Cc3cn(C)c4ccc(OC)cc34)CC2)cc1`, 749 s.
As for `COc1cccc(-c2ccc(=O)n(Cc3nc(-c4ccc(OC)c(OC)c4)no3)n2)c1`, the figure is 887 s.
Compound `COc1cccc(S(=O)(=O)N2CCC(Cc3nncn3C)C2)c1` (centres undefined) registered an RP-LC retention time of 630 s.
As for `COc1ccccc1CCNC(=O)CSc1ccc(-c2cccs2)nn1`, the figure is 802 s; as for `CCN1CCC(N(Cc2cccs2)C(=O)Nc2ccccc2C)CC1`, 646 s.
As for `CC(C)CC(=O)Nc1ccc(-n2cnc(C(=O)NC3CCCCCC3)c2)nc1`, the figure is 865 s.
The value for `CCn1cnc(S(=O)(=O)N2CCCC(C(=O)Nc3ccc(F)cc3C)C2)c1` (centres undefined) was 726 s; that for `COC(=O)c1ccc(NC(=O)N2CCCC2c2cc(C(C)C)no2)cc1` (centres undefined) was 845 s.
As for `CN1C(=O)[C@H]2CN(Cc3ccc(F)c(Cl)c3)C[C@H]2C1=O`, the RP-LC retention time came to 623 s.
As for `O=c1c(S(=O)(=O)N2CCCC2)cccn1Cc1cccc(F)c1`, the figure is 823 s; as for `O=C(NC1CCN(c2cc(-c3cccs3)[nH]n2)C1)c1cc(F)ccc1Cl` (centres undefined), 797 s.
As for `CCOc1ccc(OCC)c(N2C=C(C#N)S(=O)(=O)c3cc(F)ccc32)c1`, the figure is 1030 s; as for `CCN1CCN(c2cc(C)c3cc(NC(=O)/C=C/c4ccc(OCCC(C)C)cc4)ccc3n2)CC1`, 747 s; as for `CCCNC(=O)N1CCN(Cc2nc3cccnc3n2-c2ccc(F)cc2)CC1`, 604 s.
The value for `Nc1cc(C2CCN(S(=O)(=O)c3cccc(Br)c3)CC2)no1` was 824 s; that for `CS(=O)(=O)N1CCC(OC2CCN(C(=O)Nc3ccccc3)CC2)CC1` was 709 s.
Consider `Cc1ncsc1CN1CCCC(c2nc(-c3cnccn3)no2)CCNC(=O)CC1` (centres undefined), for which the RP-LC retention time was 577 s.
`Cc1cnc(CNC(=O)c2c(=O)c3ccc(N4CCCN(C)CC4)nc3n3c2sc2ccccc23)cn1` displayed an RP-LC retention time of 681 s.
The value for `CC(C)Cn1cc(CCNS(=O)(=O)c2ccc(C(C)C)cc2)c2cccnc21` was 1110 s; that for `Cc1ccccc1NC(=O)c1c(NC(=O)CCC(=O)O)sc2c1CCCC2` was 939 s; that for `CCCNC(=O)CN1C(=O)C2CCCCN2c2ccc(S(=O)(=O)N3CCCC3)cc21` (centres undefined) was 800 s.
The value for `Cc1nn(Cc2nc(-c3ccc(NC(=O)C4CCCO4)cc3)oc2C)c(C)c1C` (centres undefined) was 793 s; that for `CC(NC(=O)C1CCN(C(=O)N2CCOc3ccc(Cl)cc32)CC1)c1ccccc1` (centres undefined) was 906 s.
As for `CC1Oc2ccc(-c3csc(NC(=O)c4ccc(Br)cc4)n3)cc2NC1=O` (centres undefined), the figure is 990 s; as for `COc1ccc(-c2noc(-c3nc(Cc4ccc(F)cc4)no3)n2)cc1`, 1170 s.
The compound `O=C1CCCc2cc(S(=O)(=O)N3CCCN(Cc4ccccc4Cl)C3)ccc2N1` registered an RP-LC retention time of 750 s.
As for `CN(CC(=O)N1CCCCC1)S(=O)(=O)c1ccc2c(c1)CCCC(=O)N2`, the figure is 676 s.
The value for `CCCn1cc(S(=O)(=O)N2CCN(c3cccc(Cl)c3)CC2)c2cccnc21` was 761 s; that for `Cc1cccc(-c2noc(CSc3nc4cc5c(cc4c(=O)n3CC3CCCO3)OCO5)n2)c1` (centres undefined) was 1170 s.
As for `Cc1ccccc1NC(=O)N(C)Cc1ccsc1`, the figure is 866 s; as for `O=C(Nc1nccs1)C1CC(=O)N(CCc2c[nH]c3ccc(Cl)cc23)C1` (centres undefined), 745 s.
Compound `CCn1cc(-c2ccc(F)cc2)cc1C(=O)N1CCC2(CC1)OCCO2` yielded an RP-LC retention time of 963 s.
The value for `CCn1c(=O)c(=O)n(CC(=O)NC(C)Cc2ccco2)c2cccnc21` (centres undefined) was 711 s.
The value for `CCC(C)NC(=O)C1CCC(=O)N(c2cc(OC)c(OC)c(OC)c2)C1c1ccc(OC)cc1` (centres undefined) was 693 s; that for `CCOC(=O)C1CCN(Cc2nc(-c3ccc(N4CCCCCC4)nc3)no2)CC1` was 600 s.
The value for `O=C(Nc1ccc(C2=NCCCN2)cc1)Nc1ccc(C2=NCCCN2)cc1` was 581 s.
In the case of `O=C(CSc1ccc(-n2cccn2)nn1)NCc1cccs1`, the RP-LC retention time worked out at 681 s.
The compound `O=C1NCCc2ccc(NC(=O)C3CC(=O)N(c4ccc(Cl)cc4)C3)cc21` (centres undefined) returned an RP-LC retention time of 661 s.
As for `CC(NC(=O)c1ccco1)c1nc2ccccc2n1CC(=O)N(c1ccccc1)C(C)C` (centres undefined), the figure is 725 s.
Compound `Cc1cc2c(cc1S(=O)(=O)N(C)CC(=O)N1CCN(c3ccccn3)CC1)OC(C)C(=O)N2` (centres undefined) returned an RP-LC retention time of 587 s.
Compound `Cc1ccc(N2CN(CC(=O)Nc3cccc(Cl)c3)S(=O)(=O)c3cccnc32)cc1` returned an RP-LC retention time of 1030 s.
The value for `O=C(Nc1nc2c(s1)CCc1ccccc1-2)c1cccc(F)c1` was 1120 s.
As for `CCOC(=O)C1=C(CN2CCN(Cc3ccc4c(c3)OCO4)CC2)NC(=O)NC1c1ccc(F)cc1` (centres undefined), the figure is 675 s; as for `CCC(C(=O)NCCc1cnc[nH]1)n1c2ccccc2c2cnn(C)c(=O)c21` (centres undefined), 603 s.
The compound `CCOc1nc2ccccc2nc1N1CCCC(C(=O)Nc2ccccc2CC)C1` (centres undefined) registered an RP-LC retention time of 1120 s.
As for `COc1ccccc1CNC(=O)C1CCc2nc(N3CCCCC3)ncc2C1` (centres undefined), the figure is 755 s; as for `O=S(=O)(NCCc1noc(-c2ccccc2)n1)c1cccs1`, 849 s.
As for `Cc1nc(C)c(C(=O)N2CCC(C(=O)N3CCCCCCNC(=O)CC3)CC2)s1`, the figure is 602 s.
The value for `COCC(=O)Nc1ccc2c(c1)CN(C(=O)c1ccccc1)CC2` was 658 s; that for `O=C1CC(c2noc(C3CCC3)n2)CN1c1ccccc1` (centres undefined) was 869 s.
`CCNc1cc(N2CCC(CCC(=O)Nc3ccc(C)cc3C)CC2)ncn1` showed an RP-LC retention time of 686 s.
As for `CCOC(=O)C(NC(C)=O)(C(=O)OCC)C(C)c1c[nH]c2ccccc12` (centres undefined), the figure is 847 s.
The value for `COc1cccc(CNC(=O)N2CCc3nc[nH]c3C2)c1` was 625 s.
The value for `CCN1C(=O)c2ccccc2Oc2ccc(C(=O)NCc3ccccc3)cc21` was 912 s.

(Values after the METLIN SMRT retention time set (Domingo-Almenara et al. 2019).)
